Data published in patent US9540323B2 (BRISTOL-MYERS SQUIBB COMPANY, priority 2012, dated 2017).

What was measured:
[1] = molecular target: cloned human P2Y1 receptors (Homo sapiens (Human), UniProt P47900); test: Binding Assay B - Scintillation Proximity Assay (SPA) for P2Y1 binding, [33P] 2MeS-ADP; conditions: SPA, 0.3 nM [33P] 2MeS-ADP, Cheng-Prusoff; read-out: P2Y1 Ki (nM) using binding assay B
Protocol: Binding Assay B—Scintillation Proximity Assay (SPA) for P2Y1 Binding
A SPA membrane binding assay was used to identify inhibitors of [^33P] […] Reactions were allowed to proceed to completion at room temperature for 1 hour followed by centrifugation of the plate for 5 min. About 40 μL of the aqueous solution was aspirated. Plates were sealed and the [^33P]

[2] = system: human platelet rich plasma (PRP); test: ADP induced platelet aggregation assay; conditions: Homo sapiens, Platelet, 5 min, read-out: PA IC50 (μM) @ 10 μM ADP, human PRP, 10 μM ADP, AUC at 5 minute

Sequence of cloned human P2Y1 receptors (P47900 whole entry): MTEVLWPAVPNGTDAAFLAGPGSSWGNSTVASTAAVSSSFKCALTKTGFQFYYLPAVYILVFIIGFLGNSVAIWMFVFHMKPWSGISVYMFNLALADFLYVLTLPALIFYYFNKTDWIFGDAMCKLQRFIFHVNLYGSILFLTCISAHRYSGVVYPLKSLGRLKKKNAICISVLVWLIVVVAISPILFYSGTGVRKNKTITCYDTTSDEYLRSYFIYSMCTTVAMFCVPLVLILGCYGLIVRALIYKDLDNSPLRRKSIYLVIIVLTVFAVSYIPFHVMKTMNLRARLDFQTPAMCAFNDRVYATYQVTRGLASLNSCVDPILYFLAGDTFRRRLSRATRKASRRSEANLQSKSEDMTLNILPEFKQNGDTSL

SMILES | Ki [1] [nM] | IC50 [2] [µM]
CC1(C)CN(c2ccccc2NC(=O)Nc2nc3ccc(F)cc3s2)c2c(O)cc(F)c(-c3ccc(C(F)(F)F)nc3)c21 [Example 158, 1-(2-(5-Fluoro-7-hydroxy-3,3-dimethyl-4-(6-(trifluoromethyl)pyridin-3-yl)indolin-1-yl)phenyl)-3-(6-fluorobenzo[d]thiazol-2-yl)urea] | 5.7 | 0.2
CSc1ncc(-c2c(F)cc(O)c3c2C(C)(C)CN3c2ccccc2NC(=O)Nc2ccc(OC(F)(F)F)cc2)cn1 [Example 189, 1-(2-(5-Fluoro-7-hydroxy-3,3-dimethyl-4-(2-(methylthio)pyrimidin-5-yl)indolin-1-yl)phenyl)-3-(4-(trifluoromethoxy)phenyl)urea] | 7.2 | 0.25
Cc1nnc(-c2ccc(O)c3c2C(C)(C)CN3c2ccccc2NC(=O)Nc2ccc(OC(F)(F)F)cc2)o1 [Example 86, 1-(2-(7-Hydroxy-3,3-dimethyl-4-(5-methyl-1,3,4-oxadiazol-2-yl)indolin-1-yl)phenyl)-3-(4-(trifluoromethoxy)phenyl)urea] | 22.2 | 5
CC1(C)CN(c2ccccc2NC(=O)Nc2nc3ccc(Cl)cc3s2)c2c(O)cc(F)c(-c3nc4cc(F)ccc4s3)c21 [Example 154, 1-(6-Chlorobenzo[d]thiazol-2-yl)-3-(2-(5-fluoro-4-(5-fluorobenzo[d]thiazol-2-yl)-7-hydroxy-3,3-dimethylindolin-1-yl)phenyl)urea] | 22.5 | 0.35
CCC1(CC)CN(c2ccccc2NC(=O)Nc2nc3c(s2)CN(CC(C)C)CC3)c2c(O)ccc(Cl)c21 [Example 54, 1-(2-(4-Chloro-3,3-diethyl-7-hydroxyindolin-1-yl)phenyl)-3-(5-isobutyl-4,5,6,7-tetrahydrothiazolo[5,4-c]pyridin-2-yl)urea] | 13.3 | 0.15
CC(C)CN1CCCC1c1ccc(NC(=O)Nc2ccccc2N2CC(C)(C)c3c(F)ccc(O)c32)cc1 (centres unmarked) [Example 34, 1-(2-(4-Fluoro-7-hydroxy-3,3-dimethylindolin-1-yl)phenyl)-3-(4-(1-isobutylpyrrolidin-2-yl)phenyl)urea] | 9.8 | 1.07
CC(C)c1noc(-c2c(F)cc(O)c3c2C(C)(C)CN3c2ccccc2NC(=O)Nc2ccc(OC(F)(F)F)cc2)n1 [Example 256, 1-(2-(5-Fluoro-7-hydroxy-4-(3-isopropyl-1,2,4-oxadiazol-5-yl)-3,3-dimethylindolin-1-yl)phenyl)-3-(4-(trifluoromethoxy)phenyl)urea] | 6.6 | 0.76
CCC1(CC)CN(c2ccccc2NC(=O)Nc2ccc(C3CCN(CC(C)(C)C)CC3)cc2)c2c(O)ccc(C#N)c21 [Example 45, 1-(2-(4-Cyano-3,3-diethyl-7-hydroxyindolin-1-yl)phenyl)-3-(4-(1-neopentylpiperidin-4-yl)phenyl)urea] | 6.7 | 0.39
CC1(C)CN(c2ccccc2NC(=O)Nc2nc3ccc(Cl)cc3s2)c2c(O)cc(F)c(-c3ccc(Cl)cc3)c21 [Example 225, 1-(6-Chlorobenzo[d]thiazol-2-yl)-3-(2-(4-(4-chlorophenyl)-5-fluoro-7-hydroxy-3,3-dimethylindolin-1-yl)phenyl)urea] | 34.7 | 0.36
CC1(C)CN(c2ccccc2NC(=O)Nc2nc3ccc(F)cc3s2)c2c(O)cc(F)c(-c3nc4ccc(Cl)cc4s3)c21 [Example 155, 1-(2-(4-(6-Chlorobenzo[d]thiazol-2-yl)-5-fluoro-7-hydroxy-3,3-dimethylindolin-1-yl)phenyl)-3-(6-fluorobenzo[d]thiazol-2-yl)urea] | 38 | 0.6
CCC1(CC)CN(c2ccccc2NC(=O)Nc2ccc(C(C)(C)C)cc2)c2c(O)ccc(C#N)c21 [Example 44, 1-(4-tert-Butylphenyl)-3-(2-(4-cyano-3,3-diethyl-7-hydroxyindolin-1-yl)phenyl)urea] | 6.9 | 0.45
CCC1(CC)CN(c2ccccc2NC(=O)Nc2ccc(OC(F)(F)F)cc2)c2c(O)ccc(Br)c21 [Example 39, 1-(2-(3,3-Diethyl-4-bromo-7-hydroxyindolin-1-yl)phenyl)-3-(4-(trifluoromethoxy)phenyl)urea] | 18.8 | 0.51
Cc1cnc2oc(-c3ccc(O)c4c3C(C)(C)CN4c3ccccc3NC(=O)Nc3ccc(OC(F)(F)F)cc3)nc2c1 [Example 102, 1-(2-(7-Hydroxy-3,3-dimethyl-4-(6-methyloxazolo[5,4-b]pyridin-2-yl)indolin-1-yl)phenyl)-3-(4-(trifluoromethoxy)phenyl)urea] | 11.2 | 0.97
CCC1(CC)CN(c2ccccc2NC(=O)Nc2ccc(OC(F)(F)F)cc2)c2c1ccc(F)c2O [Example 35, 1-(2-(3,3-Diethyl-6-fluoro-7-hydroxyindolin-1-yl)phenyl)-3-(4-(trifluoromethoxy)phenyl)urea] | 13.8 | 0.38
COc1ccc2nc(NC(=O)Nc3ccccc3N3CC(C)(C)c4c(-c5nc6ccc(F)cc6s5)c(F)cc(O)c43)sc2c1 [Example 179, 1-(2-(5-Fluoro-4-(6-fluorobenzo[d]thiazol-2-yl)-7-hydroxy-3,3-dimethylindolin-1-yl)phenyl)-3-(6-methoxybenzo[d]thiazol-2-yl)urea] | 22.6 | 0.49
CC1(C)CN(c2ccccc2NC(=O)Nc2nc3ccc(Cl)cc3s2)c2c(O)ccc(Br)c21 [Example 41, 1-(2-(4-Bromo-7-hydroxy-3,3-dimethylindolin-1-yl)phenyl)-3-(6-chlorobenzo[d]thiazol-2-yl)urea] | 10.6 | 0.47
CCC1(CC)CN(c2ccccc2NC(=O)Nc2ccc(C3CCN(CC(C)C)CC3)cc2)c2c(O)ccc(F)c21 [Example 28, 1-(2-(3,3-Diethyl-4-fluoro-7-hydroxyindolin-1-yl)phenyl)-3-(4-(1-isobutylpiperidin-4-yl)phenyl)urea] | 8.1 | 0.54
CC1(C)CN(c2ccccc2NC(=O)Nc2ccc(OC(F)(F)F)cc2)c2c(O)cc(F)c(-c3ccc(C(F)(F)F)cn3)c21 [Example 149, 1-(2-(5-Fluoro-7-hydroxy-3,3-dimethyl-4-(5-(trifluoromethyl)pyridin-2-yl)indolin-1-yl)phenyl)-3-(4-(trifluoromethoxy)phenyl)urea] | 13 | 0.11
CC1(C)CN(c2ccccc2NC(=O)Nc2nc3ccc(Cl)cc3s2)c2c(O)cc(F)c(-c3cc(C(F)(F)F)no3)c21 [Example 265, 1-(6-Chlorobenzo[d]thiazol-2-yl)-3-(2-(5-fluoro-7-hydroxy-3,3-dimethyl-4-(3-(trifluoromethyl)isoxazol-5-yl)indolin-1-yl)phenyl)urea] | 49.9 | 0.4
CCC1(CC)CN(c2ccccc2NC(=O)Nc2ccc(C3CCCN3CC(C)(C)C)cc2)c2c(O)cccc21 (centres unmarked) [Example 7, 1-(2-(3,3-Diethyl-7-hydroxyindolin-1-yl)phenyl)-3-(4-(1-neopentylpyrrolidin-2-yl)phenyl)urea] | 8.6 | 0.55
CC1(C)CN(c2ccccc2NC(=O)Nc2ccc(OC(F)(F)F)cc2)c2c(O)c(F)cc(-c3ccccc3)c21 [Example 230, 1-(2-(6-Fluoro-7-hydroxy-3,3-dimethyl-4-phenylindolin-1-yl)phenyl)-3-(4-(trifluoromethoxy)phenyl)urea] | 16.3 | 0.3
CC1(C)CN(c2ccccc2NC(=O)Nc2ccc(OC(F)(F)F)cc2)c2c(O)c(F)cc(-c3ccc(C(F)(F)F)cc3)c21 [Example 229, 1-(2-(6-Fluoro-7-hydroxy-3,3-dimethyl-4-(4-(trifluoromethyl)phenyl)indolin-1-yl)phenyl)-3-(4-(trifluoromethoxy)phenyl)urea] | 15.3 | 0.22
CC1(C)CN(c2ccccc2NC(=O)Nc2nc3ccc(Cl)cc3s2)c2c(O)ccc(-c3ccc(F)cc3)c21 [Example 199, 1-(6-Chlorobenzo[d]thiazol-2-yl)-3-(2-(4-(4-fluorophenyl)-7-hydroxy-3,3-dimethylindolin-1-yl)phenyl)urea] | 10.1 | 0.18
CC1(C)CN(c2ccccc2NC(=O)Nc2nc3ccc(F)cc3s2)c2c(O)cc(F)c(Br)c21 [Example 67, 1-(2-(4-Bromo-5-fluoro-7-hydroxy-3,3-dimethylindolin-1-yl)phenyl)-3-(6-fluorobenzo[d]thiazol-2-yl)urea] | 13.8 | 0.77
CC1(C)CN(c2ccccc2NC(=O)Nc2csc(Cl)n2)c2c(O)cc(F)c(-c3nc4ccc(F)cc4s3)c21 [Example 150, 1-(2-Chlorothiazol-4-yl)-3-(2-(5-fluoro-4-(6-fluorobenzo[d]thiazol-2-yl)-7-hydroxy-3,3-dimethylindolin-1-yl)phenyl)urea] | 32.7 | 0.41
CC1(C)CN(c2cc(F)ccc2NC(=O)Nc2ccc(F)cc2F)c2c(O)ccc(C(F)(F)F)c21 [Example 59, 1-(2,4-Difluorophenyl)-3-(4-fluoro-2-(7-hydroxy-3,3-dimethyl-4-(trifluoromethyl)indolin-1-yl)phenyl)urea] | 5.7 | 0.24
CC1(C)CN(c2ccccc2NC(=O)Nc2nc3ccc(F)cc3s2)c2c(O)cc(F)c(-c3ccc(F)cc3)c21 [Example 213, 1-(2-(5-Fluoro-4-(4-fluorophenyl)-7-hydroxy-3,3-dimethylindolin-1-yl)phenyl)-3-(6-fluorobenzo[d]thiazol-2-yl)urea] | 25.4 | 0.38
CC1(C)CN(c2ccccc2NC(=O)Nc2ccc(OC(F)(F)F)cc2)c2c(O)ccc(Cl)c21 [Example 56, 1-(2-(4-Chloro-7-hydroxy-3,3-dimethylindolin-1-yl)phenyl)-3-(4-(trifluoromethoxy)phenyl)urea] | 8.7 | 0.87
